≈ marks a conversion by molar mass, not a printed value. Where two headings read alike, the source gives them in different places.
Legend:
[1] = cited from earlier work
[2] = steady state; FDA-approved starting dose 20 mg/kg/d; cited from earlier work
R. oryzae = assay: Tissue fungal burden of DKA mice infected with R. oryzae; type: in vivo, BALB/c male mice
Description: Briefly, for in vivo infection, BALB/c male mice (>20 g) were rendered diabetic with a single i.p. injection of 210 mg/kg streptozotocin in 0.2 ml citrate buffer 10 days prior to fungal challenge. […] Mice were infected through the tail vein with the appropriate inocula of R. oryzae. To confirm the inocula, dilutions were streaked on PDA plates and colonies were counted following a 24 h incubation period at room temperature. The primary efficacy endpoint was time to death. As a secondary endpoint, brain fungal burden (the primary target organ) was determined by homogenization by rolling a pipette on organs placed in Whirl-Pak bags (Nasco, Fort Atkinson, Wis.) containing 2 ml saline. The homogenate was serially diluted in 0.85% saline and then quantitatively cultured on PDA. Values were expressed as log 10 cfu g^−1 tissue. All procedures involving mice were approved by the institutional animal use and care committee, following the National Institutes of Health guidelines for animal housing and care.
For in vivo infection, BALB/c male mice (>20 g) were rendered diabetic with a single i.p. injection of 210 mg/kg streptozotocin in 0.2 ml citrate buffer 10 days prior to fungal challenge. […] For neutropenic mouse model, mice were injected with a single i.p. dose of 200 mg/kg cyclolphosphamide (Bristol Myer Squibb) 2 days prior to infection with R. oryzae. […] Mice were infected through the tail vein with the appropriate inocula of R. oryzae. To confirm the inocula, dilutions were streaked on PDA plates containing 0.1% triton and colonies were counted following a 24 h incubation period at 37° C. The primary efficacy endpoint was time to death. As a secondary endpoint, brain fungal burden (the primary target organ) was determined by homogenization by rolling a pipette on organs placed in Whirl-Pak™ bags (Nasco®, Fort Atkinson, Wis.) containing 1 ml saline. The homogenate was serially diluted in 0.85% saline and then quantitatively cultured on PDA. Values were expressed as log10 cfu g−1 tissue. Finally, for histopathological analysis, infected organs were collected from mice and fixed in 10% zinc formalin. Fixed tissues were embedded in paraffin, and […] sections were stained with haematoxylin and eosin for light microscopy examination. All procedures involving mice were approved by the institutional animal use and care committee, following the National Institutes of Health guidelines for animal housing and care.

Non-oryzae Rhizopus = assay: Deferasirox susceptibility testing (MIC/MFC), non-oryzae Rhizopus isolates; type: cell-based, Rhizopus spp.
Description: Minimum inhibitory concentration (MIC) and minimum fungicidal concentration (MFC) were determined for deferasirox by the method of Espinel-Ingroff using R. oryzae spores starved for iron (Espinel-Ingroff, (2001), supra). Cidality was defined as a <4-fold difference between MIC and MFC.
We next determined the deferasirox susceptibilities of multiple clinical isolates of Mucorales (Table 3). The MIC9OS of deferasirox against Mucor, non-oryzae Rhizopus spp., and R. oryzae were 3.12 to 6.25 μg/ml. MFCs were similar to MICs, and deferasirox was cidal for 28/29 (97%) of isolates. Of note, slight growth was seen within the first twelve hours even at extremely high concentrations of deferasirox. […] Furthermore, the MICs and MFCs of deferasirox against these isolates were well below clinically achievable peak (˜38 μg/ml) and trough serum levels (˜17 μg/ml) of the drug at steady state when administered at the FDA-approved starting dose (20 mg/kg/d).

[3] = 4.2×10^4 spores R. oryzae 99-892, 10 mg/kg bid, 3 days, vs placebo or deferasirox plus saturating ferric chloride
[4] = 24 h, R. microsporus ATCC 62417
[5] = 48 h, R. microsporus ATCC 62417
[6] = Non-oryzae Rhizopus MIC90/MFC90, 24 h
[7] = Non-oryzae Rhizopus MIC90/MFC90, 48 h
[8] = Rhizopus, 24 h, Rhizopus sp. 99-1150
[9] = Rhizopus, 24 h, Rhizopus sp. 99-1700
[10] = Rhizopus, 48 h, Rhizopus sp. 99-1150
[11] = Rhizopus, 48 h, Rhizopus sp. 99-1700
[12] = Rhizopus, ATCC20577, 24 h, Rhizopus sp. ATCC 20577, 24 h
[13] = Rhizopus, ATCC20577, 48 h, Rhizopus sp. ATCC 20577, 48 h

In the case of `O=C(O)c1ccc(-n2nc(-c3ccccc3O)nc2-c2ccccc2O)cc1` [Deferasirox, 4-[3,5-Bis(2-hydroxyphenyl)-1H-1,2,4-triazol-1-yl]-benzoic acid], the toxicity ([1]; iron-overloaded marmosets, doses up to 400 mg/kg/d) is given as “virtually no toxicity”, the toxicity ([1]; non-iron overloaded marmosets, 39 weeks, up to 40 mg/kg/d) is given as “no toxicities” and the tolerability ([1]; non-iron overloaded marmosets, subacute treatment (4 weeks), up to 65 mg/kg/d) is given as “well tolerated with no adverse effects”. The toxicity ([1]; non-iron-overloaded marmosets, chronic administration, 80 mg/kg) was “severe toxicity”, the “clinically achievable peak serum level” value [2] was roughly 38 µg/mL and the “clinically achievable trough serum level” value [2] was roughly 17 µg/mL. For the same compound, the “decrease in brain fungal burden” value (R. oryzae; [3]) was “greater than 10 fold”, the “decrease in kidney fungal burden” value (R. oryzae; [3]) was “greater than 10 fold” and the “brain CFUs compared to placebo” value (R. oryzae; R. oryzae 99-880, monotherapy, organs harvested day 3) was “neither drug alone was able to reduce brain CFUs”. The MFC (Non-oryzae Rhizopus; [4]) was 0.39 µg/mL (≈ 1.04 µM), the MIC (Non-oryzae Rhizopus; [4]) was 0.39 µg/mL (≈ 1.04 µM) and the MFC (Non-oryzae Rhizopus; [5]) was 0.39 µg/mL (≈ 1.04 µM). The MIC (Non-oryzae Rhizopus; [5]) was 0.39 µg/mL (≈ 1.04 µM), the “Fungicidal?” value (Non-oryzae Rhizopus; [6]) was “Y (Cidal = MFC/MIC ≦ 4)” and the MFC90 (Non-oryzae Rhizopus; [6]) was 6.25 µg/mL (≈ 16.7 µM). For the same compound, the MIC90 (Non-oryzae Rhizopus; [6]) was 6.25 µg/mL (≈ 16.7 µM), the “Fungicidal?” value (Non-oryzae Rhizopus; [7]) was “Y (Cidal = MFC/MIC ≦ 4)” and the MFC90 (Non-oryzae Rhizopus; [7]) was 6.25 µg/mL (≈ 16.7 µM). For the same compound, the MIC90 (Non-oryzae Rhizopus; [7]) was 3.12 µg/mL (≈ 8.36 µM), the “Fungicidal?” value (Non-oryzae Rhizopus; R. microsporus ATCC 62417, 24 h) was “Y (Cidal = MFC/MIC ≦ 4)” and the “Fungicidal?” value (Non-oryzae Rhizopus; R. microsporus ATCC 62417, 48 h) was “Y (Cidal = MFC/MIC ≦ 4)”. For the same compound, the “Fungicidal?” value (Non-oryzae Rhizopus; Rhizopus sp. 99-1150, 24 h) was “Y (Cidal = MFC/MIC ≦ 4)”, the “Fungicidal?” value (Non-oryzae Rhizopus; Rhizopus sp. 99-1150, 48 h) was “Y (Cidal = MFC/MIC ≦ 4)” and the “Fungicidal?” value (Non-oryzae Rhizopus; Rhizopus sp. 99-1700, 24 h) was “Y (Cidal = MFC/MIC ≦ 4)”. The “Fungicidal?” value (Non-oryzae Rhizopus; Rhizopus sp. 99-1700, 48 h) was “Y (Cidal = MFC/MIC ≦ 4)”, the “Fungicidal?” value (Non-oryzae Rhizopus; Rhizopus sp. ATCC 20577, 24 h) was “Y (Cidal = MFC/MIC ≦ 4)” and the “Fungicidal?” value (Non-oryzae Rhizopus; Rhizopus sp. ATCC 20577, 48 h) was “Y (Cidal = MFC/MIC ≦ 4)”. For the same compound, the MFC (Non-oryzae Rhizopus; [8]) was 6.25 µg/mL (≈ 16.7 µM), the MIC (Non-oryzae Rhizopus; [8]) was 6.25 µg/mL (≈ 16.7 µM) and the MFC (Non-oryzae Rhizopus; [9]) was 6.25 µg/mL (≈ 16.7 µM). For the same compound, the MIC (Non-oryzae Rhizopus; [9]) was 6.25 µg/mL (≈ 16.7 µM), the MFC (Non-oryzae Rhizopus; [10]) was 3.12 µg/mL (≈ 8.36 µM) and the MIC (Non-oryzae Rhizopus; [10]) was 3.12 µg/mL (≈ 8.36 µM). It also gave an MFC (Non-oryzae Rhizopus; [11]) of 1.56 µg/mL (≈ 4.18 µM), an MIC (Non-oryzae Rhizopus; [11]) of 1.56 µg/mL (≈ 4.18 µM) and an MFC (Non-oryzae Rhizopus; [12]) of 6.25 µg/mL (≈ 16.7 µM). The MIC (Non-oryzae Rhizopus; [12]) was 3.12 µg/mL (≈ 8.36 µM), the MFC (Non-oryzae Rhizopus; [13]) was 6.25 µg/mL (≈ 16.7 µM) and the MIC (Non-oryzae Rhizopus; [13]) was 3.12 µg/mL (≈ 8.36 µM).

From US20100129434A1, “COMPOSITIONS AND METHODS FOR THE TREATMENT OF MUCORMYCOSIS AND OTHER FUNGAL DISEASES” (priority 2006, published 2010)
